From US6395731B1, “Heterocyclic derivatives which inhibit Factor Xa” (Astrazeneca AB, priority 1998, dated 2002)
Counter-ions that a name gives are not always drawn.

SMILES | melting point [°C]
Cc1nc(-c2ccc(C(=O)N3CCN(S(=O)(=O)c4ccc5cc(Br)ccc5c4)CC3)cc2)c[nH]1 [Example 3, 1-(6-Bromonaphth-2-ylsulphonyl)-4-[4-(2-methylimidazol-4-yl)benzoyl]piperazine] | 215 to 216
Nc1nc(-c2ccc(C(=O)N3CCN(S(=O)(=O)c4ccc5cc(Br)ccc5c4)CC3)cc2)c[nH]1 (as salt: salt) [Example 4, 1-(6-Bromonaphth-2-ylsulphonyl)-4-[4-(2-aminoimidazol-4-yl)benzoyl]piperazine] | 274 to 275
